Source: ChEMBL document CHEMBL1146635 (Bioorg Med Chem Lett, 2003)

system: Human immunodeficiency virus 1; experiment: Viral spread inhibitory concentration against HIV-1 strain Q-60C in MT-4 human T-lymphoid cells; type: functional; conditions: Human immunodeficiency virus 1, T-lymphoid; read-out: CIC95

| Compound | IC95 |
| --- | --- |
| Cc1ccccc1-n1ccc(CN2CCN(C[C@@H](O)C[C@@H](Cc3cccnc3)C(=O)N[C@H]3c4ccccc4OC[C@H]3O)[C@H](C(=O)NCC(F)(F)F)C2)c1 | 31 nM |
| O=C(N[C@H]1c2ccccc2OC[C@H]1O)[C@H](Cc1cccnc1)C[C@H](O)CN1CCN(Cc2ccn(-c3ccccc3Cl)c2)C[C@H]1C(=O)NCC(F)(F)F | 31 nM |
| O=C(N[C@H]1c2ccccc2OC[C@H]1O)[C@H](Cc1cccnc1)C[C@H](O)CN1CCN(Cc2ccn(-c3ccc(Cl)c(Cl)c3)c2)C[C@H]1C(=O)NCC(F)(F)F | ≤ 8 nM |
| O=C(N[C@H]1c2ccccc2OC[C@H]1O)[C@H](Cc1cccnc1)C[C@H](O)CN1CCN(Cc2ccn(-c3cccc(F)c3)c2)C[C@H]1C(=O)NCC(F)(F)F | 15 nM |
| Cc1ccc(-n2ccc(CN3CCN(C[C@@H](O)C[C@@H](Cc4cccnc4)C(=O)N[C@H]4c5ccccc5OC[C@H]4O)[C@H](C(=O)NCC(F)(F)F)C3)c2)cc1 | ≤ 8 nM |

system: MT4; experiment: Viral spread inhibitory concentration against HIV-1 strain V-18C in MT-4 human T-lymphoid cells; type: functional; conditions: read-out: CIC95

| Compound | IC95 |
| --- | --- |
| Cc1ccccc1-n1ccc(CN2CCN(C[C@@H](O)C[C@@H](Cc3cccnc3)C(=O)N[C@H]3c4ccccc4OC[C@H]3O)[C@H](C(=O)NCC(F)(F)F)C2)c1 | 31 nM |
| O=C(N[C@H]1c2ccccc2OC[C@H]1O)[C@H](Cc1cccnc1)C[C@H](O)CN1CCN(Cc2ccn(-c3ccccc3Cl)c2)C[C@H]1C(=O)NCC(F)(F)F | 31 nM |
| O=C(N[C@H]1c2ccccc2OC[C@H]1O)[C@H](Cc1cccnc1)C[C@H](O)CN1CCN(Cc2ccn(-c3ccc(Cl)c(Cl)c3)c2)C[C@H]1C(=O)NCC(F)(F)F | 15 nM |
| Cc1ccc(-n2ccc(CN3CCN(C[C@@H](O)C[C@@H](Cc4cccnc4)C(=O)N[C@H]4c5ccccc5OC[C@H]4O)[C@H](C(=O)NCC(F)(F)F)C3)c2)cc1 | 15 nM |

system: Human immunodeficiency virus 1; experiment: Viral spread inhibitory concentration against HIV-1 strain NL4-3 in MT-4 human T-lymphoid cells; type: functional; conditions: Human immunodeficiency virus 1, T-lymphoid; read-out: CIC95

| Compound | IC95 |
| --- | --- |
| Cc1ccccc1-n1ccc(CN2CCN(C[C@@H](O)C[C@@H](Cc3cccnc3)C(=O)N[C@H]3c4ccccc4OC[C@H]3O)[C@H](C(=O)NCC(F)(F)F)C2)c1 | ≤ 8 nM |
| O=C(N[C@H]1c2ccccc2OC[C@H]1O)[C@H](Cc1cccnc1)C[C@H](O)CN1CCN(Cc2ccn(-c3ccccc3Cl)c2)C[C@H]1C(=O)NCC(F)(F)F | ≤ 8 nM |
| O=C(N[C@H]1c2ccccc2OC[C@H]1O)[C@H](Cc1cccnc1)C[C@H](O)CN1CCN(Cc2ccn(-c3ccc(Cl)c(Cl)c3)c2)C[C@H]1C(=O)NCC(F)(F)F | 15 nM |
| O=C(N[C@H]1c2ccccc2OC[C@H]1O)[C@H](Cc1cccnc1)C[C@H](O)CN1CCN(Cc2ccn(-c3cccc(F)c3)c2)C[C@H]1C(=O)NCC(F)(F)F | 15 nM |
| Cc1ccc(-n2ccc(CN3CCN(C[C@@H](O)C[C@@H](Cc4cccnc4)C(=O)N[C@H]4c5ccccc5OC[C@H]4O)[C@H](C(=O)NCC(F)(F)F)C3)c2)cc1 | 15 nM |

system: Human immunodeficiency virus 1; experiment: Viral spread inhibitory concentration against HIV-1 strain K-60C in MT-4 human T-lymphoid cells; type: functional; conditions: Human immunodeficiency virus 1, T-lymphoid; read-out: CIC95

| Compound | IC95 |
| --- | --- |
| Cc1ccccc1-n1ccc(CN2CCN(C[C@@H](O)C[C@@H](Cc3cccnc3)C(=O)N[C@H]3c4ccccc4OC[C@H]3O)[C@H](C(=O)NCC(F)(F)F)C2)c1 | 125 nM |
| O=C(N[C@H]1c2ccccc2OC[C@H]1O)[C@H](Cc1cccnc1)C[C@H](O)CN1CCN(Cc2ccn(-c3ccccc3Cl)c2)C[C@H]1C(=O)NCC(F)(F)F | 62 nM |
| O=C(N[C@H]1c2ccccc2OC[C@H]1O)[C@H](Cc1cccnc1)C[C@H](O)CN1CCN(Cc2ccn(-c3ccc(Cl)c(Cl)c3)c2)C[C@H]1C(=O)NCC(F)(F)F | 31 nM |
| O=C(N[C@H]1c2ccccc2OC[C@H]1O)[C@H](Cc1cccnc1)C[C@H](O)CN1CCN(Cc2ccn(-c3cccc(F)c3)c2)C[C@H]1C(=O)NCC(F)(F)F | 31 nM |
| Cc1ccc(-n2ccc(CN3CCN(C[C@@H](O)C[C@@H](Cc4cccnc4)C(=O)N[C@H]4c5ccccc5OC[C@H]4O)[C@H](C(=O)NCC(F)(F)F)C3)c2)cc1 | 15 nM |

molecular target: Human immunodeficiency virus type 1 protease (Human immunodeficiency virus 1, UniProt Q72874); experiment: In vitro inhibition of HIV-1 protease (NL4-3 strain).; conditions: not given

| Compound | IC50 |
| --- | --- |
| Cc1ccccc1-n1ccc(CN2CCN(C[C@@H](O)C[C@@H](Cc3cccnc3)C(=O)N[C@H]3c4ccccc4OC[C@H]3O)[C@H](C(=O)NCC(F)(F)F)C2)c1 | 0.16 nM |
| O=C(N[C@H]1c2ccccc2OC[C@H]1O)[C@H](Cc1cccnc1)C[C@H](O)CN1CCN(Cc2ccn(-c3ccccc3Cl)c2)C[C@H]1C(=O)NCC(F)(F)F | 0.18 nM |
| O=C(N[C@H]1c2ccccc2OC[C@H]1O)[C@H](Cc1cccnc1)C[C@H](O)CN1CCN(Cc2ccn(-c3ccc(Cl)c(Cl)c3)c2)C[C@H]1C(=O)NCC(F)(F)F | 0.02 nM |
| O=C(N[C@H]1c2ccccc2OC[C@H]1O)[C@H](Cc1cccnc1)C[C@H](O)CN1CCN(Cc2ccn(-c3cccc(F)c3)c2)C[C@H]1C(=O)NCC(F)(F)F | 0.05 nM |
| Cc1ccc(-n2ccc(CN3CCN(C[C@@H](O)C[C@@H](Cc4cccnc4)C(=O)N[C@H]4c5ccccc5OC[C@H]4O)[C@H](C(=O)NCC(F)(F)F)C3)c2)cc1 | 0.06 nM |
